The values below come from US20180201592A1, “2-AMINO-1,3,4-THIADIAZINE AND 2-AMINO-1,3,4-OXADIAZINE BASED ANTIFUNGAL AGENTS” (F2G Limited, priority 2015, published 2018).

What all share (settings): banded MIC grade
The test system of assay [1] is Aspergillus fumigatus. Kind of assay: Minimum inhibitory concentration, YAG medium. Format: cell-based. A digest of the protocol: (§1)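 Testing uses spores harvested after 5 days on Sabouraud agar, grown 24 hrs at 35° C in glucose/ammonium chloride/yeast extract (YAG) medium against twofold drug dilutions. Optical density at 485 nm defines MIC as >70% growth reduction compared with drug-free wells.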

Assay [2] concerns A. fumigatus 210. Kind of assay: Minimum inhibitory concentration, YAG medium. Format: cell-based, Aspergillus fumigatus. The method in brief:
as §1

For assay [3], the system named is A. terreus 49. Put plainly: Minimum inhibitory concentration, YAG medium. Format: cell-based, Aspergillus terreus. The method in brief:
(§2)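 Twofold aqueous dilution series, prepared from a DMSO stock (5 mg/mL), were inoculated with Aspergillus spp. spores; incubation lasted 24 hrs at 35° C before OD 485 nm readings.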

Assay [4] relates to Aspergillus flavus. Kind of assay: Minimum inhibitory concentration, YAG medium. Format: cell-based. The method in brief: as §2
Assay [5] relates to Aspergillus niger. Put plainly: Minimum inhibitory concentration, YAG medium. The format is cell-based. A digest of the protocol: as §2
Assay [6] has as its system Aspergillus terreus. Put plainly: Minimum inhibitory concentration, YAG medium. The format is cell-based. A digest of the protocol:
as §2

The subject of assay [7] is C. albicans. Put plainly: Minimum inhibitory concentration, RPMI medium. Format: cell-based. The method in brief: (§3)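 Incubated at 35° C for 24-48 hrs in RPMI 1640 with twofold water dilutions of compound (from 5 mg/mL stock in DMSO); absorbance at 485 nm indicated growth.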
For assay [8], the system named is C. parapsilosis. Kind of assay: Minimum inhibitory concentration, RPMI medium. The format is cell-based. The method in brief: as §3
Assay [9] has as its system C. tropicalis. Put plainly: Minimum inhibitory concentration, RPMI medium. Format: cell-based. The method in brief: as §3

For the molecule `COc1ccc(CCCOCCC2=NN=C(N)SC2)cc1`, the “MIC grade, A. FUMIGATUS, YAG media” value in assay [1] was 2 (2: 1-5 mg/L). For the same molecule, in assay [2], the “MIC grade, A. FUMIGATUS 210, YAG media” value was 2 (2: 1-5 mg/L). For the same molecule, the “MIC grade, A. TERREUS 49, YAG media” value in assay [3] is listed as 2 (2: 1-5 mg/L). The “MIC grade, A. FLAVUS, YAG media” value in assay [4] is given as 2 (2: 1-5 mg/L). The “MIC grade, A. NIGER, YAG media” value in assay [5] is given as 2 (2: 1-5 mg/L). Moreover, in assay [6], the “MIC grade, A. TERREUS, YAG media” value is 2 (2: 1-5 mg/L). Besides, the “MIC grade, C. ALBICANS, RPMI media” value in [7] is recorded as 2 (2: 5-20 mg/L). Besides, the “MIC grade, C. PARAPSILOSIS, RPMI media” value in assay [8] is listed as 3 (3: 1-5 mg/L). Further, the “MIC grade, C. TROPICALIS, RPMI media” value in assay [9] is recorded as 2 (2: 5-20 mg/L).

As to `COCCCCOCCC1=NN=C(N)SC1`, in assay [1], the “MIC grade, A. FUMIGATUS, YAG media” value is recorded as 3 (3: 0.2-1 mg/L). In [2], the “MIC grade, A. FUMIGATUS 210, YAG media” value is 3 (3: 0.2-1 mg/L). In addition, in assay [3], the “MIC grade, A. TERREUS 49, YAG media” value is given as 3 (3: 0.2-1 mg/L). Further, in [4], the “MIC grade, A. FLAVUS, YAG media” value was 3 (3: 0.2-1 mg/L). Further, the “MIC grade, A. NIGER, YAG media” value in assay [5] is reported as 3 (3: 0.2-1 mg/L). The “MIC grade, A. TERREUS, YAG media” value in assay [6] is 3 (3: 0.2-1 mg/L). The “MIC grade, C. ALBICANS, RPMI media” value in assay [7] was 3 (3: 1-5 mg/L). Further, the “MIC grade, C. PARAPSILOSIS, RPMI media” value in [8] is 3 (3: 1-5 mg/L). For the same molecule, in assay [9], the “MIC grade, C. TROPICALIS, RPMI media” value is 2 (2: 5-20 mg/L).

Consider `CCCCc1ccc(COCCC2=NN=C(N)SC2)cc1`, for which the “MIC grade, A. FUMIGATUS, YAG media” value in [1] is on record as 1 (1: ≥5 mg/L). For the same molecule, the “MIC grade, A. FUMIGATUS 210, YAG media” value in assay [2] is recorded as 1 (1: ≥5 mg/L). Besides, the “MIC grade, A. TERREUS 49, YAG media” value in assay [3] is reported as 2 (2: 1-5 mg/L). In addition, the “MIC grade, A. FLAVUS, YAG media” value in assay [4] was 3 (3: 0.2-1 mg/L). The “MIC grade, A. NIGER, YAG media” value in assay [5] is 3 (3: 0.2-1 mg/L). Further, in assay [6], the “MIC grade, A. TERREUS, YAG media” value is on record as 3 (3: 0.2-1 mg/L). Also, the “MIC grade, C. ALBICANS, RPMI media” value in assay [7] is reported as 2 (2: 5-20 mg/L). Also, the “MIC grade, C. PARAPSILOSIS, RPMI media” value in assay [8] is on record as 2 (2: 5-20 mg/L). The “MIC grade, C. TROPICALIS, RPMI media” value in assay [9] was 2 (2: 5-20 mg/L).

For the molecule `COCCC1=NN=C(N)SC1`, the “MIC grade, A. FUMIGATUS, YAG media” value in assay [1] is reported as 3 (3: 0.2-1 mg/L). Also, in assay [2], the “MIC grade, A. FUMIGATUS 210, YAG media” value is on record as 2 (2: 1-5 mg/L). Also, the “MIC grade, A. TERREUS 49, YAG media” value in [3] was 3 (3: 0.2-1 mg/L). In addition, the “MIC grade, A. FLAVUS, YAG media” value in [4] is given as 3 (3: 0.2-1 mg/L). In assay [5], the “MIC grade, A. NIGER, YAG media” value is 3 (3: 0.2-1 mg/L). In addition, in assay [6], the “MIC grade, A. TERREUS, YAG media” value was 3 (3: 0.2-1 mg/L). Besides, the “MIC grade, C. ALBICANS, RPMI media” value in assay [7] is given as 1 (1: ≥20 mg/L). Besides, in assay [8], the “MIC grade, C. PARAPSILOSIS, RPMI media” value is reported as 2 (2: 5-20 mg/L). In addition, the “MIC grade, C. TROPICALIS, RPMI media” value in [9] is on record as 1 (1: ≥20 mg/L).

`NC1=NN=C(c2cccc(Cl)c2)CS1`: in assay [1], the “MIC grade, A. FUMIGATUS, YAG media” value is recorded as 1 (1: ≥5 mg/L). In assay [2], the “MIC grade, A. FUMIGATUS 210, YAG media” value is listed as 1 (1: ≥5 mg/L). Besides, the “MIC grade, A. TERREUS 49, YAG media” value in assay [3] is on record as 1 (1: ≥5 mg/L). For the same molecule, in assay [4], the “MIC grade, A. FLAVUS, YAG media” value was 1 (1: ≥5 mg/L). Also, in assay [5], the “MIC grade, A. NIGER, YAG media” value is 1 (1: ≥5 mg/L). The “MIC grade, A. TERREUS, YAG media” value in assay [6] was 1 (1: ≥5 mg/L). In addition, the “MIC grade, C. ALBICANS, RPMI media” value in assay [7] is reported as 1 (1: ≥20 mg/L). The “MIC grade, C. PARAPSILOSIS, RPMI media” value in [8] is reported as 1 (1: ≥20 mg/L). Further, in assay [9], the “MIC grade, C. TROPICALIS, RPMI media” value was 1 (1: ≥20 mg/L).

For the molecule `COc1cccc(C2=NN=C(N)SC2)c1`, in assay [1], the “MIC grade, A. FUMIGATUS, YAG media” value is listed as 1 (1: ≥5 mg/L). Moreover, the “MIC grade, A. FUMIGATUS 210, YAG media” value in assay [2] is listed as 1 (1: ≥5 mg/L). Moreover, the “MIC grade, A. TERREUS 49, YAG media” value in assay [3] is given as 1 (1: ≥5 mg/L). Also, the “MIC grade, A. FLAVUS, YAG media” value in assay [4] is on record as 1 (1: ≥5 mg/L). Also, in assay [5], the “MIC grade, A. NIGER, YAG media” value is listed as 1 (1: ≥5 mg/L). In [6], the “MIC grade, A. TERREUS, YAG media” value is 1 (1: ≥5 mg/L). In addition, the “MIC grade, C. ALBICANS, RPMI media” value in assay [7] is listed as 1 (1: ≥20 mg/L). The “MIC grade, C. PARAPSILOSIS, RPMI media” value in assay [8] is reported as 1 (1: ≥20 mg/L). In addition, the “MIC grade, C. TROPICALIS, RPMI media” value in assay [9] is 1 (1: ≥20 mg/L).

`NC1=NN=C(c2ccc(Cl)cc2)CS1`: the “MIC grade, A. FUMIGATUS, YAG media” value in assay [1] is 3 (3: 0.2-1 mg/L). For the same molecule, the “MIC grade, A. FUMIGATUS 210, YAG media” value in assay [2] is 2 (2: 1-5 mg/L). In assay [3], the “MIC grade, A. TERREUS 49, YAG media” value is recorded as 3 (3: 0.2-1 mg/L). In assay [4], the “MIC grade, A. FLAVUS, YAG media” value is 3 (3: 0.2-1 mg/L). The “MIC grade, A. NIGER, YAG media” value in assay [5] is given as 2 (2: 1-5 mg/L). In addition, the “MIC grade, A. TERREUS, YAG media” value in assay [6] is on record as 3 (3: 0.2-1 mg/L). The “MIC grade, C. ALBICANS, RPMI media” value in assay [7] is listed as 1 (1: ≥20 mg/L). In addition, the “MIC grade, C. PARAPSILOSIS, RPMI media” value in assay [8] is given as 1 (1: ≥20 mg/L). In addition, the “MIC grade, C. TROPICALIS, RPMI media” value in assay [9] is 1 (1: ≥20 mg/L).
